# Entries after “also recorded” stand apart in the source; their conditions may differ.
# Tests used:
# ELIC-α1^W246LGABAAR [1] = target: T1, ELIC-α1^W246LGABAAR (Homo sapiens, UniProt P14867, W273L); test: biochemical; assay type: binding
# Method: ELIC-α1GABAAR was expressed and purified according to a previously published protocol ([Q. Chen et al., 2018]). The purified protein was aliquoted and stored at −80°C. Mutagenesis was performed as described in previous reports ([Kinde et al., 2016]) by oligonucleotide-directed mutagenesis using Phu polymerase (Thermo Fisher Scientific, Waltham, MA, USA) verified by sequencing. ELIC-α1GABAAR was expressed in OverExpress™ C43(D3) E. coli, derived from Rosetta™(DE3) cells under double selection with kanamycin and chloramphenicol for ELIC-α1GABAAR.
# One hundred microlitres of purified ELIC-α1GABAAR (0.3 μM in Buffer A + 0.015% DDM) was transferred into a 50-μl window quartz cuvette (Starna Cells, Atascadero, CA, USA), which was placed in a cuvette holder maintained at 4°C. […] Two microlitres of NaI (AK Scientific, Union City, CA, USA; 5-M stock prepared in 0.1-Mm sodium hydrosulfite [Sigma-Aldrich, St. Louis, MO, USA]) was added to the protein (final concentration = 100 mM) and incubated for 10 min to reduce the fluorescence emission from hydrophilic tryptophans. To measure the concentration–dependent effects of NS on tryptophan fluorescence, 1 μl of NS from each 100× stock solution was sequentially added to the NaI-equilibrated protein and thoroughly mixed to achieve concentrations from 0.01 to 50 μM. […]
# ELIC-α1^W246LGABAAR [2] = target: T1, ELIC-α1^W246LGABAAR; test: Inhibition of MQ290 FRET by NS in W246L receptors; assay type: binding; settings: 30 μM NS; MQ290 1 μM
# Method: (§1) One hundred microlitres of ELIC-α1GABAAR (0.3 μM) was transferred into a 50-μl window quartz cuvette maintained at 4°C, and NaI was added to the protein sample to a final concentration of 100 mM and incubated for 10 min. MQ290 was then added at a concentration of 3 μM for 3α-OH NS inhibition curves or 1 μM for 3β-OH NS inhibition curves and incubated for 30 min. One-microlitre aliquots of 3α-OH and 3β-OH NS from their corresponding stock solutions (prepared in Buffer A + 0.015% DDM) were added to achieve concentrations between 0.01 and 30 μM. The background emission spectra of ligands alone were obtained for each ligand concentration in the absence of protein and were subtracted from the protein-ligand emission spectra to yield background subtracted data. The MQ290 FRET spectra for different ligand concentrations were estimated using the method described above. The 370-nm intensities of the FRET spectra were plotted against ligand concentration and fitted to a four-parameter logistic curve to obtain IC50 data (GraphPad Software version 9.4.0, San Diego, CA). Ki values were calculated using the relationship: Ki=IC50/1+LT/Kd
# α1β3 GABAA receptors = target: α1β3 GABAA receptors; parameters: method as in Tateiwa et al., 2023; settings: ref Tateiwa et al., 2023; read-out: apparent Kd; cited from earlier work
# ELIC-α1GABAAR [3] = target: T2, ELIC-α1GABAAR (Homo sapiens, UniProt P14867); test: KK200 photolabelling competition, middle-down MS; assay type: binding; settings: 3 μM KK200, 30 μM competitor
# T2 sequence (P14867 other isoform, or with tags, fused parts or gaps): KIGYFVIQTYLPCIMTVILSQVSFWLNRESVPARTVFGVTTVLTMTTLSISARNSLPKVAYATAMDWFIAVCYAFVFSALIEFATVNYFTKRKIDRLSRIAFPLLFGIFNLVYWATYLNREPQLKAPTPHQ
# T2 sequence (P0C7B7 1-198, further chain): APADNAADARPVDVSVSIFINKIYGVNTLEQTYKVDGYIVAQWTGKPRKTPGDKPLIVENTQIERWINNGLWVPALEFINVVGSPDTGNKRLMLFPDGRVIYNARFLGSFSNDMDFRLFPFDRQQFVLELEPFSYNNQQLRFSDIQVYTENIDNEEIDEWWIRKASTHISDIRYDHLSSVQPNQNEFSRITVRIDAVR
# Method: The synthesis of the NS photolabelling reagent KK200 is detailed in previous reports ([W. W. L. Cheng et al., 2018]; [Jiang et al., 2016]). […] The samples were then irradiated in a quartz cuvette for 5 min, using a photoreactor emitting light at >320 nm ([Germann et al., 2021]). Sample preparation for tryptic digestion and analysis by LC–MS was performed as previously described ([Sugasawa et al., 2019]). Peptides were separated on a home-packed PLRP-S (Agilent, Santa Clara, CA, USA) column (10 cm × 75 μm, 300 Å) using a 135-min gradient from 10% to 90% acetonitrile and introduced to an Orbitrap-Elite mass spectrometer (Thermo Fisher Scientific, Waltham, MA, USA; RRID:SCR_020548) at 800 nl·min^−1 with a nanospray source. MS acquisition was set as an MS1 Orbitrap scan (resolution of 60,000) followed by top 20 MS2 Orbitrap scans (resolution of 15,000) using data-dependent acquisition and exclusion of singly charged precursors. Fragmentation was performed using high-energy dissociation with normalized energy of 35%. Analysis of data sets was performed using Xcalibur (Thermo Fisher Scientific, Waltham, MA, USA; RRID: SCR_014593) to manually search for TM1, TM2, TM3 or TM4 tryptic peptides with or without NS photolabelling modifications. Photolabelling efficiency was estimated by generating extracted chromatograms of unlabelled and labelled peptides, determining the area under the curve, and calculating the (area of labelled peptide/(area of unlabelled + area of labelled peptide). MS2 spectra of photolabelled TMD peptides were analysed by manual assignment of fragment ions with and without photolabelling modification.
# ELIC-α1GABAAR [4] = target: T2, ELIC-α1GABAAR; assay type: binding
# Method: as §1
# where LT is the concentration of MQ290 and Kd was determined from the MQ290 binding curve.
# T1 sequence (P14867 other isoform, or with tags, fused parts or gaps W273L): as the sequence (P14867 other isoform, or with tags, fused parts or gaps) above, with W25L counted along it
# T1 sequence (P0C7B7 1-198, further chain): as the sequence (P0C7B7 1-198, further chain) above
smiles,measurement,setting,value
"CC(=O)[C@H]1CC[C@H]2[C@@H]3CC[C@H]4C[C@H](O)CC[C@]4(C)[C@H]3CC[C@]12C [AlloP, allopregnanolone]",IC50,ELIC-α1^W246LGABAAR [1],0.5 ± 0.21 µM
same,inhibition of remaining MQ290 FRET signal in W246L,ELIC-α1^W246LGABAAR [2],reduced by neither
same,Kd,α1β3 GABAA receptors,0.1 ± 0.05 µM
same,prevention of KK200 photolabelling of TM3 (Y309),ELIC-α1GABAAR [3],significantly different than control; also recorded: prevented
same,Hill slope,"ELIC-α1GABAAR [4]; 3α-OH NS, MQ290 3 μM",−1.89 ± 0.26
same,mechanism of inhibition of MQ290 binding,ELIC-α1GABAAR [4]; MQ290 binding curves with 3×Kd and 30 μM NS,competitive interaction
